In the METLIN SMRT retention time set (Domingo-Almenara et al. 2019):

Assay: gradient 5% acetonitrile 3 min, to 50% in 2 min, to 85% in 15 min, held 3 min, 100 µL/min
Conditions: column: Zorbax Extend-C18 2.1 x 50 mm; eluents: water / acetonitrile, 0.1% formic acid
Summary of the method: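 Each retention time is based on an adduct peak selected computationally and verified by manual inspection. Measurements used HPLC–quadrupole time-of-flight mass spectrometry in positive and negative ionization mode on mixtures of ~100 pure standards. Chromatography ran on a Zorbax Extend-C18 column (2.1 × 50 mm, 1.8 μm) at 100 μL/min with water and acetonitrile, each containing 0.1% formic acid, and dead and dwell volumes of 40 μL and 900 μL.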

| Structure (SMILES) | RP-LC retention time [s] |
| --- | --- |
| Cc1nnc(-c2nnc(N3CCCC3)c3ccccc23)o1 | 568 |
| COC(=O)c1nnn(-c2ccc(C)cc2)c1C(=O)OC | 623 |
| CCCCN1C(=O)C(C)(C(=O)Nc2ccc(OC)c(Cl)c2)Oc2cccnc21 (stereo not given) | 1080 |
| COc1ccc(Cl)cc1C(=O)NCCCOc1cccc2cccnc12 | 611 |
| CC(C)CN1C(=O)c2cccn2CC1C(=O)NCCCN1CCN(C)CC1 (stereo not given) | 548 |
| O=C(CN1CCc2[nH]c3c(F)ccc(F)c3c(=O)c2C1)Nc1ccccc1Cl | 953 |
| O=c1c2ccccc2n(Cc2nc(-c3ccccc3)no2)c(=O)n1Cc1ccco1 | 1050 |
| O=C(NC1CC1)C1CCN(Cc2cc3ccccc3n2Cc2ccccc2)CC1 | 694 |
| CCOCCCNC(=O)C(C)n1c(=O)c(C(F)(F)F)nc2ccccc21 (stereo not given) | 929 |
| Cc1ccn2cc(C(=O)NCc3cccc(F)c3)nc2c1 | 645 |
| O=S(=O)(c1cc(-c2nnc(C3CCC3)o2)co1)N1CCC(N2CCCCC2)CC1 | 642 |
| CN(C)CC1CCC/C(=C\c2ccc(OC(=O)/C=C/c3ccccc3)cc2)C1=O (stereo not given) | 796 |
| CCOC(=O)N1CCN(c2ncnc3c2cnn3-c2cc(Cl)ccc2C)CC1 | 863 |
| CC(=O)N1c2ccc(S(=O)(=O)N3CCCC3)cc2CC1C(=O)NCCN(C)Cc1ccccc1 (stereo not given) | 619 |
| CC(C)NC(=O)C1CCCN(C(=O)Nc2ccc(NC(=O)Nc3ccccc3F)cc2)C1 (stereo not given) | 735 |
| CC12C=CC(O1)C1C(=O)N(c3ccc(N4CCOCC4)cc3)C(=O)C12 (stereo not given) | 662 |
| CCc1ccccc1NC(=O)N1CCc2nc(-c3ccc(Cl)cc3)ncc2C1 | 1160 |
| COc1cc(NS(=O)(=O)c2cc3n(c2)CCN(C)C3=O)cc(OC)c1 | 671 |
| O=C(Cn1nc2nc(N3CCCC3)ccn2c1=O)N1CCN(c2ccccc2F)CC1 | 691 |
| O=C(c1ccc(N2CCNC(c3ccccc3)C2)nc1)N1CCSCC1 (stereo not given) | 606 |
| CCc1ccc(N2C(=O)CC(N3CCC(C(N)=O)CC3)C2=O)cc1 (stereo not given) | 593 |
| Cc1cccc(C)c1NC(=O)C1CCCN(c2nnc(C)c3c(C)n(-c4ccccc4)nc23)C1 (stereo not given) | 776 |
| Cn1nccc1-c1cccc(-c2noc(-c3cccnc3)n2)c1 | 876 |

| Structure (SMILES) | RP-LC retention time [s] |
| --- | --- |
| Cc1[nH]c(C(=O)N2CCCC(C(=O)NCCCN3CCOCC3)C2)c(C)c1C (stereo not given) | 597 |
| O=C(NCc1cccnc1)NC1CC(=O)N(c2ccc(Cl)cc2)C1 (stereo not given) | 546 |
| COc1ccc(-c2cn3ccn(-c4ccc(Cl)cc4)c(=O)c3n2)cc1 | 828 |
| CC1CCN(C2=NCCN2C(=O)c2ccc(F)cc2)CC1 | 661 |
| O=C(NCCc1c[nH]c2ccccc12)c1cc(-c2ccc(F)cc2)c[nH]1 | 859 |
| Cc1cc(C(=O)NCCCN2CCOCC2)c2cc(Br)ccc2n1 | 583 |
| Cc1nn(-c2ccccc2)c(C)c1S(=O)(=O)N1CCC(C(=O)Nc2cc(F)ccc2F)CC1 | 1000 |
| OCCN1CCN(c2ncnc3c2cnn3-c2ccc(Cl)cc2)CC1 | 650 |
| CCOC(=O)Nc1ccc2nc(N3CCCCCC3)sc2c1 | 798 |
| CN(C(=O)Cn1nc(Cc2ccncc2)c2ccccc2c1=O)c1ccc(Br)cc1 | 655 |
| COc1ccccc1-c1c(C)nn2c(N3CCN(c4ccccn4)CC3)cc(C)nc12 | 604 |
| Cc1ccc(-c2cn3c(CC(=O)N4CCN(c5cc(Cl)ccc5C)CC4)csc3n2)cc1C | 1130 |
| CCCNC(=O)c1cn(-c2ccc(-c3nc(C(C)(C)C)no3)cn2)cn1 | 931 |
| CN1CCN(C(=O)C2CCN(S(=O)(=O)c3ccc(-c4noc(C5CC5)n4)cc3)CC2)CC1 | 636 |
| CC1(C(=O)NCc2ccc(F)cc2)CN(S(C)(=O)=O)CC(=O)N1c1cccc(F)c1 (stereo not given) | 764 |
| COc1ccc2c(c1)-c1nc(NC(=O)c3ccc(OC)c(Br)c3)sc1CC2 | 1220 |
| Cc1nnsc1C(=O)Nc1nnc(SCc2ccc(Cl)c(Cl)c2)s1 | 1020 |
| CN1CCN(CCCNC(=O)CC2CCN(C(=O)c3cc4cc(Cl)ccc4[nH]3)CC2)CC1 | 569 |
| Cc1nn2c(CNC(=O)c3cccnc3)c(-c3ccccc3)nc2s1 | 655 |
| CC(C)(C)NC(=O)NCC1CC(=O)N(c2ccc(Cl)cc2)C1 (stereo not given) | 706 |
| COc1ccc(S(=O)(=O)N2CCN(c3cc(C)nc(NC4CCCCC4)n3)CC2)cc1Cl | 851 |
| CCOC(=O)c1ccc2nc(C(F)(F)F)nc(N3CCc4ccccc4C3)c2c1 | 1200 |
